Test results taken from US12577201B2, “Glutamine analogs” (Jacobio Pharmaceuticals Co., Ltd., priority 2020, dated 2026).

Tests used:
[1] = Plasma stability, monkey plasma; settings: 1 μM, 37° C., 4 hours
Method: (§1) For metabolic stability, plasma from dog, monkey, swine and human were used. For stability, prodrugs (1 μM) were spiked in respective solutions and incubated in an orbital shaker at 37° C. 50 μL aliquots of the mixture in duplicate were removed, and the reaction quenched by addition of four times the volume of ice cold acetonitrile spiked with the internal standard (Dexamethasone 100 ng/mL). […] 100 μL of the supernatant was diluted with 100 μL of water and transferred to the 0.6 mL plastic tubes on 96-well plate. Prodrug disappearance was monitored over time using a liquid chromatography and tandem mass spectrometry (LC-MS/MS).
(§2) For LC-MS/MS, prodrugs were analyzed on a ExionLC AD HPLC system coupled to REF Triple Quad 5500+ mass spectrometer with an ESI interface on an Phenomenex Kinetex 5 m C18 100A (2.1*50) mm UPLC column. The autosampler was temperature controlled and was operated at 4° C. The mobile phase used for the chromatographic separation was composed of acetonitrile/water containing 0.10% formic acid and will run at a flow rate of 0.6 mL/min for 3.5 min using gradient elution. The column effluent was monitored using […], equipped with an electrospray probe set in the positive ionization mode. Samples were introduced into the ionization source through a heated nebulized probe (400° C.). Disappearance of prodrugs will be measured from ratio of peak areas of analyte to IS.
(§3) For quantification of compound remaining, disappearance of prodrugs was measured from ratio of peak areas of analyte to IS.

[2] = Plasma stability, human plasma; settings: 1 μM, 37° C., 4 hours
Method: as §1, §2, §3

[3] = Stability in liver microsomes, mouse; assay type: in vitro ADME; settings: 60 minutes, read-out: In vitro Clint
Method: For metabolic stability, microsomes from human, monkey, dog, rat and mouse were used. For stability, prodrugs (1 μM) were spiked in each microsomes matrix and incubated in an orbital shaker at 37° C. Aliquots of 50 μL were taken from the reaction solution at 0, 15, 30, 45 and 60 min. The reaction was stopped by the addition of 4 volumes of cold acetonitrile with IS (100 nM alprazolam, 200 nM labetalol, 200 nM caffeine and 2 μM ketoprofen). Samples were centrifuged at 3, 220 g for 40 minutes. Aliquot of 100 μL of the supernatant was mixed with 100 μL of ultra-pure H2O and then used for LC-MS/MS analysis.
For LC-MS/MS, prodrugs were analyzed on an API 4000 instrument from AB Inc (Canada) with an ESI interface coupled to Shimadzu LC system on an Waters XSelect HSS T3 C18, 2.5 m, 2.1×30 mm column.
For data analysis, peak areas were determined from extracted ion chromatograms. The slope value, k, was determined by linear regression of the natural logarithm of the remaining percentage of the parent drug vs. incubation time curve. The in vitro half-life (in vitro t1/2) was determined from the slope value: in vitro t1/2=−(0.693/k)
Conversion of the in vitro t1/2 (min) into the in vitro intrinsic clearance (in vitro CLint, in μL/min/mg protein) was done using the following equation (mean of duplicate determinations): […]

[4] = system: MC38 tumor cells; test: Anti-tumor efficacy in MC38 syngeneics in C57BL/6 mouse (Example 9); assay type: in vivo; settings: C57BL/6, MC38, 2 μmol/kg S.C. QD; for T/C (%) / TGI (%) / TV (mm^3) (Mean ± SEM) D21 / TV (mm^3) at D21 (Mean ± SEM): D21; for TV (mm^3) at D21 (Mean ± SEM): Table 5
Method: Animal species: Mus musculus; Strain: C57BL/6; Age: 6-8 weeks; Sex: female.
(§4) The MC38 tumor cells were maintained in vitro in DMEM medium supplemented with 10% FBS at 37° C., 5% CO2. The cells growing in an exponential growth phase were harvested and counted for tumor inoculation. The culture MC38 were harvested, re-suspended in PBS containing 50% Matrigel at a density of 1×10^7 cells/mL. Each mouse was inoculated subcutaneously in the right flank region with 1×10^6 cells in 0.1 mL of PBS containing 50% Matrigel for tumor development.
The treatments were started when the mean tumor size reached 79-118 mm^3 (average tumor size 96 mm^3). Each group contained 8 tumor bearing mice. Group 1 was treated with Vehicle (10% DMSO+90% Saline), S.C., QD.
(§5) In vivo efficacy was examined according to absolute tumor growth inhibition (TGI) and the safety was evaluated according to weight change and survival in mice.
(§6) Statistical analysis of difference in tumor volume among the groups was performed using one-way ANOVA followed by individual comparisons using Games-Howell post-hoc test (equal variance not assumed). All data was analyzed using SPSS 22.0 software.

[5] = Body weight of CES1c -/- mice bearing MC38 tumors (Example 10); assay type: in vivo; settings: CES1c -/- mouse, MC38, 2 μmol/kg S.C. QD; for BW Change (%): D6 to D26
Method: The treatments were started when the mean tumor size reached 52-132 mm^3 (average tumor size 95 mm^3). Each group contained 5 tumor bearing mice. Group 1 was treated with Vehicle (10% DMSO+90% Saline), S.C., QD(Subcutaneous injection, quaque die). Group 2 was given treatments with reference compound A at 2 μmol/kg, S.C., QD. Group 3 was given treatments with compound 2 at 2 μmol/kg, S.C., QD.
as §5

[6] = system: MC38 tumor cells; test: Anti-tumor efficacy in MC38 model in C57BL/6 mouse (Example 11); assay type: in vivo; settings: C57BL/6, MC38, 2 μmol/kg S.C. QD
Method: as §4, with “Animal species: Mus musculus; Strain: C57BL/6; Age: 6-8 weeks; Sex: female. The MC38” for “The MC38”
The treatments were started when the mean tumor size reached 82-129 mm^3 (average tumor size 102 mm^3). Each group contained 6 tumor bearing mice. Group 1 was treated with Vehicle (10% DMSO+90% Saline), S.C., QD.
as §5, §6

[7] = Solubility in water, remark in the synthesis example; assay type: physicochemical; settings: remark on the isolated product

Structure (SMILES)	plasma stability (compound remaining) [1]	plasma stability (compound remaining) [2]	microsomal CLint at 1 μM [3] [µL/min/mg]	TV (mm^3) (Mean ± SEM) D6 [4]	TV (mm^3) (Mean ± SEM) D10 [4]	TV (mm^3) (Mean ± SEM) D14 [4]	TV (mm^3) (Mean ± SEM) D18 [4]	T/C (%) [4] [%]	TGI (%) [4] [%]	TV (mm^3) (Mean ± SEM) D21 [4]	TV (mm^3) (Mean ± SEM) D25 [4]	TV (mm^3) (Mean ± SEM) D28 [4]	TV (mm^3) (Mean ± SEM) D31 [4]	TV (mm^3) at D21 (Mean ± SEM) [4] [mm^3]	tolerability / body weight loss [5]	BW(g) (Mean ± SEM) Beginning (D6) [5]	BW Change (%) [5]	BW(g) (Mean ± SEM) End (D26) [5]	further results
CO[C@@H](C)C(=O)N[C@@H](CCC(=O)C=[N+]=[N-])C(=O)OC(C)C [Compound 2, isopropyl (S)-6-diazo-2-((S)-2-methoxypropanamido)-5-oxohexanoate]	substantially intact	substantially intact	67.1	96 ± 4	141 ± 9	140 ± 10	180 ± 13	9.5	90.5	263 ± 32	381 ± 55	496 ± 62	617 ± 56	263 ± 32	well-tolerated	19.1 ± 0.3	+2.4%	19.5 ± 0.3	T/C (%) ([6]; Example 11): 17.5%; TGI (%) ([6]; Example 11): 82.5%; TV (mm^3) (Mean ± SEM) D6 ([6]; Example 11, D6): 102 ± 7 mm^3; TV (mm^3) (Mean ± SEM) D10 ([6]; Example 11, D10): 167 ± 17 mm^3; TV (mm^3) (Mean ± SEM) D13 ([6]; Example 11, D13): 257 ± 51 mm^3; TV (mm^3) (Mean ± SEM) D17 ([6]; Example 11, D17): 306 ± 43 mm^3; TV (mm^3) (Mean ± SEM) D20 ([6]; Example 11, D20): 407 ± 33 mm^3; TV (mm^3) at D21 (Mean ± SEM) ([6]; Table 13, D21): 407 ± 33 mm^3; solubility in water [7]: easily dissolved in water
CC(=O)N[C@@H](Cc1c[nH]c2ccccc12)C(=O)N[C@@H](CCC(=O)C=[N+]=[N-])C(=O)OC(C)C [Reference compound A, reference compound]	substantially intact	substantially intact	153	96 ± 4	148 ± 6	196 ± 25	297 ± 48	14.4	85.6	399 ± 74	680 ± 143	928 ± 153	1358 ± 213	399 ± 74	some body weight loss	19.2 ± 0.2	−8.3%	17.6 ± 0.9	–
